According to ChEMBL document CHEMBL1149344, “Discovery of aminoquinazolines as potent, orally bioavailable inhibitors of Lck: synthesis, SAR, and in vivo anti-inflammatory activity” (J Med Chem, 2006):
Converted amounts (≈) assume the structure as drawn.

How the values were obtained:
[1] = Half life in Sprague-Dawley rat at 1 mg/kg, iv; assay type: ADME, organism-based; parameters: dose 1 mg/kg, route intravenous; settings: in vivo
[2] = Cmax in Sprague-Dawley rat at 5 mg/kg, po; assay type: ADME, organism-based; parameters: dose 5 mg/kg, route oral; settings: in vivo
[3] = target: Tyrosine-protein kinase ZAP-70 (Homo sapiens, UniProt P43403); assay: Inhibition of Zap70 by HTRF kinase assay
Chain of Tyrosine-protein kinase ZAP-70 (P43403 whole entry): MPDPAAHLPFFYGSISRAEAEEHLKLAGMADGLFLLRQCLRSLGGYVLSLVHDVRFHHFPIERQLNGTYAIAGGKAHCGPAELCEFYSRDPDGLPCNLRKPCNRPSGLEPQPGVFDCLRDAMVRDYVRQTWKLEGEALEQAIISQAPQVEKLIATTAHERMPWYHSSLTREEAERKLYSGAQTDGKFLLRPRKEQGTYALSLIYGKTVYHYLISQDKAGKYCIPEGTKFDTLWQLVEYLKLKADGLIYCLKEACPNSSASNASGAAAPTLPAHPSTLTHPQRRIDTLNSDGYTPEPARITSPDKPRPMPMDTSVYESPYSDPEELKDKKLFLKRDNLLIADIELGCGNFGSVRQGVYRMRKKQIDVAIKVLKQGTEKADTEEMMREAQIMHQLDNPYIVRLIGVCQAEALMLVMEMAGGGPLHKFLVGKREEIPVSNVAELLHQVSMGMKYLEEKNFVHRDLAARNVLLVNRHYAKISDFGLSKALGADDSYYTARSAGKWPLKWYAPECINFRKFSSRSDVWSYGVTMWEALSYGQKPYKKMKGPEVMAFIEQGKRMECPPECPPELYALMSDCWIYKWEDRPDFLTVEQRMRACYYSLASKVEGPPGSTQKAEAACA

[4] = target: RAC-alpha serine/threonine-protein kinase (Homo sapiens, UniProt P31749); assay: Inhibition of PKBalpha by HTRF kinase assay
Chain of RAC-alpha serine/threonine-protein kinase (P31749 whole entry): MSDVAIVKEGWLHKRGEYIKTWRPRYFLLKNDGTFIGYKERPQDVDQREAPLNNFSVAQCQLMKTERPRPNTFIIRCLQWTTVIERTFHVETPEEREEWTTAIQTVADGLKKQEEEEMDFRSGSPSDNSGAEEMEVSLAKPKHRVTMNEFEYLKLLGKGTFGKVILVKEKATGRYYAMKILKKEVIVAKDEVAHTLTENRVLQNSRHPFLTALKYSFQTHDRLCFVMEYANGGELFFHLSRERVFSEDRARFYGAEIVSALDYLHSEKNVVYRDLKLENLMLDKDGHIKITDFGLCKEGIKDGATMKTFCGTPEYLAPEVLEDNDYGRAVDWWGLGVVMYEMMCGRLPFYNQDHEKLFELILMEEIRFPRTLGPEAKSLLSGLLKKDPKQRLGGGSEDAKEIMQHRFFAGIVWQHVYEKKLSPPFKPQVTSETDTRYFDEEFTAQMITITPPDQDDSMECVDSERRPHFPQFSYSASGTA

[5] = target: Tyrosine-protein kinase ITK/TSK (Homo sapiens, UniProt Q08881); assay: Inhibition of Itk by HTRF kinase assay
[6] = target: Proto-oncogene tyrosine-protein kinase Src (Homo sapiens, UniProt P12931); assay: Inhibition of Src by HTRF kinase assay
Chain of Proto-oncogene tyrosine-protein kinase Src (P12931 2-536 limits assumed): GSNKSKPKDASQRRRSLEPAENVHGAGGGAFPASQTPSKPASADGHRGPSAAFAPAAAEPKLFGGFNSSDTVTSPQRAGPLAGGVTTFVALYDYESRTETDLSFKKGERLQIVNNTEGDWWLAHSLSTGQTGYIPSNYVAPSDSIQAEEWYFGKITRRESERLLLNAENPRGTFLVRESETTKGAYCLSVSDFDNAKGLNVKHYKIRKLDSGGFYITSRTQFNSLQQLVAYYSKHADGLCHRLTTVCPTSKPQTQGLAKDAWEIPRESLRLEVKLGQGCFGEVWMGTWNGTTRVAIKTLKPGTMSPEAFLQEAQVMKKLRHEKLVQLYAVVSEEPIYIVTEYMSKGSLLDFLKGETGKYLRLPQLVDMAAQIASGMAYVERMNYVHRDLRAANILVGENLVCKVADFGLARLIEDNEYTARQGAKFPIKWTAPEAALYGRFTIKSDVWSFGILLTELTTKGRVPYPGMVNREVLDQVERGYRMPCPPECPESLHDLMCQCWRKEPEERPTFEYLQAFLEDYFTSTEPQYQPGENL

[7] = target: Mitogen-activated protein kinase 9 (Homo sapiens, UniProt P45984); assay: Inhibition of JNK2 by HTRF kinase assay
Chain of Mitogen-activated protein kinase 9 (P45984 whole entry): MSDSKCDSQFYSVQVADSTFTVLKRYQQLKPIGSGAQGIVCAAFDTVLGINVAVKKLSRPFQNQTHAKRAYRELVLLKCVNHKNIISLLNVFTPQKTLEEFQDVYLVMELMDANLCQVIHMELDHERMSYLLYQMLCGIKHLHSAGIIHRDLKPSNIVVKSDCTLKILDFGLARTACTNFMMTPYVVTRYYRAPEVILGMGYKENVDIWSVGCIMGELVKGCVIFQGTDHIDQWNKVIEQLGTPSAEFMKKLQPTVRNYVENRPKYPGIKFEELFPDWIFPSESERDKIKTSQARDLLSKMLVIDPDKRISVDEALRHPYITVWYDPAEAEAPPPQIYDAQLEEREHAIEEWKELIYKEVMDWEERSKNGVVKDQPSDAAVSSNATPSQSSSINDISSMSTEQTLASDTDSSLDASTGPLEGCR

[8] = target: Mitogen-activated protein kinase 8 (Homo sapiens, UniProt P45983); assay: Inhibition of JNK1 by HTRF kinase assay
Chain of Mitogen-activated protein kinase 8 (P45983 whole entry): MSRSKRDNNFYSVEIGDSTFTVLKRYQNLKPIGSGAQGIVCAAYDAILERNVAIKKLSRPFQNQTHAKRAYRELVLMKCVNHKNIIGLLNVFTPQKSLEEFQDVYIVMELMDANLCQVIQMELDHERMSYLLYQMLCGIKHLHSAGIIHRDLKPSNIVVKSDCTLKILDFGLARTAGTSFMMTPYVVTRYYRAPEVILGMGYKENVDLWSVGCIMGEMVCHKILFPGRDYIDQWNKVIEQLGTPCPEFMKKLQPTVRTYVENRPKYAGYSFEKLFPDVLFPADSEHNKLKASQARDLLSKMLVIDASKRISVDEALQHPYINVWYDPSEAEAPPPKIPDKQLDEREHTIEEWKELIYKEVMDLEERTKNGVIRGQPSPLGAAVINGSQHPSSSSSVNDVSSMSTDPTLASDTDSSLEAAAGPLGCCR

[9] = Tmax in Sprague-Dawley rat at 5 mg/kg, po; assay type: ADME, organism-based; parameters: dose 5 mg/kg, route oral; settings: in vivo
T-cell [10] = assay: Inhibition of anti CD3/CD28-induced IL2 secretion in human T cells; assay type: functional, cell-based
[11] = target: Tyrosine-protein kinase SYK (Homo sapiens, UniProt P43405); assay: Inhibition of Syk by HTRF kinase assay
[12] = Bioavailability in Sprague-Dawley rat at 5 mg/kg, po; assay type: ADME, organism-based; settings: in vivo
[13] = target: Mitogen-activated protein kinase 10 (Homo sapiens, UniProt P53779); assay: Inhibition of JNK3 by HTRF kinase assay
[14] = Solubility in fasted state simulated intestinal fluid at pH 6.8; assay type: physicochemical; settings: read-out: Solubility
[15] = target: Ribosomal protein S6 kinase alpha-5 (Homo sapiens, UniProt O75582); assay: Inhibition of MSK1 by HTRF kinase assay
[16] = target: Non-receptor tyrosine-protein kinase TYK2 (Homo sapiens, UniProt P29597); assay: Inhibition of Tyk2 by HTRF kinase assay
Chain of Non-receptor tyrosine-protein kinase TYK2 (P29597 whole entry): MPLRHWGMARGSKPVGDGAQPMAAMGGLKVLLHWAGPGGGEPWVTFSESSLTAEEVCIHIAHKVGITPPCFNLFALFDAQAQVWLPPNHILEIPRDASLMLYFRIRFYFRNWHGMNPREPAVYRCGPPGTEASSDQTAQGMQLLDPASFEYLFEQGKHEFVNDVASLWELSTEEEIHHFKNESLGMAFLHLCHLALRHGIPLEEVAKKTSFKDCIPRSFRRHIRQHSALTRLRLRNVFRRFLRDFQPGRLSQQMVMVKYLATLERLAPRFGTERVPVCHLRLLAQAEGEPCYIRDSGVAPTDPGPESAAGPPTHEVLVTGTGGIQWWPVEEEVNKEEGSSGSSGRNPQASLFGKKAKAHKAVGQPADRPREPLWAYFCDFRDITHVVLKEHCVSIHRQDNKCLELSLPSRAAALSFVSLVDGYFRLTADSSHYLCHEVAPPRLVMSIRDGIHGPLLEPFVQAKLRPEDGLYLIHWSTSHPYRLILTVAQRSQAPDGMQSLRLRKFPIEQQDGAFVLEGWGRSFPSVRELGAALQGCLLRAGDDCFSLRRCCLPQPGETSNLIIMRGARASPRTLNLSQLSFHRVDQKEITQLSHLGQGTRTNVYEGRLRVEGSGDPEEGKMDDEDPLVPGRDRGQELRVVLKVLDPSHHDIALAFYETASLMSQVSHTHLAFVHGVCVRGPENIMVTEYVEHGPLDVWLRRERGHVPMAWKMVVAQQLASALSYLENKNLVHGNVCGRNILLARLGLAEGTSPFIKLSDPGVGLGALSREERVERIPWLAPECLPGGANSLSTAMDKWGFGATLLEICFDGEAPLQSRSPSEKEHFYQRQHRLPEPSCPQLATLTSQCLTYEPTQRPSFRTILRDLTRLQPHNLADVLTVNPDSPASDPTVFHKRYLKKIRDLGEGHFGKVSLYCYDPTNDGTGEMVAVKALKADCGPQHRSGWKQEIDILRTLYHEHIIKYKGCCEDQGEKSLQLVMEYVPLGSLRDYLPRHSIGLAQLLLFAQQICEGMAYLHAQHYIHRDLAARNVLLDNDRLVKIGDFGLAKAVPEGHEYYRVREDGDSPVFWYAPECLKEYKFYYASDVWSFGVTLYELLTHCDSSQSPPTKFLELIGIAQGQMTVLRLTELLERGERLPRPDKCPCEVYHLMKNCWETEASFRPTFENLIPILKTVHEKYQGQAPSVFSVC

T-cell [17] = assay: Inhibition of human T cell proliferation by mixed lymphocyte reaction
[18] = AUC (0-infinity) in Sprague-Dawley rat at 5 mg/kg, po; assay type: ADME, organism-based; parameters: time infinity, dose 5 mg/kg, route oral; settings: plasma
[19] = target: Mitogen-activated protein kinase 14 (Homo sapiens, UniProt Q16539); assay: Inhibition of p38-alpha by HTRF kinase assay
Homo sapiens [20] = species on record: Homo sapiens; assay: Inhibition of […] TNF alpha production in human whole blood; assay type: functional
Mus musculus [21] = assay: Mean terminal plasma concentration in BALB/c mouse at 11 mg/kg, po after […]; assay type: ADME, organism-based; parameters: dose 11 mg/kg, route oral
[22] = target: Cyclin-dependent kinase 5 (Homo sapiens, UniProt Q00535); assay: Inhibition of CDK5 by HTRF kinase assay
Chain of Cyclin-dependent kinase 5 (Q00535 whole entry): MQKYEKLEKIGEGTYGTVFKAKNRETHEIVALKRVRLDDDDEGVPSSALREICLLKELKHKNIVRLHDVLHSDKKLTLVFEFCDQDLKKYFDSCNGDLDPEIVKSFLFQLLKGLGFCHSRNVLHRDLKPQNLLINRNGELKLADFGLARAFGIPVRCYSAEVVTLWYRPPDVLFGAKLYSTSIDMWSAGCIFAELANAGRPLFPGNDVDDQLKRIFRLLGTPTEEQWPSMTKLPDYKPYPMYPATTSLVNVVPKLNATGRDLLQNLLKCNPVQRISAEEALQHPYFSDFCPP

[23] = Clearance in Sprague-Dawley rat at 1 mg/kg, iv; assay type: ADME, organism-based; parameters: dose 1 mg/kg, route intravenous; settings: in vivo
Mus musculus [24] = assay: Unbound plasma concentration in po dosed BALB/c mouse; assay type: ADME, organism-based
Mus musculus [25] = assay: Inhibition of anti CD3-induced IL2 production in BALB/c mouse at 30 mg/kg, po relative to control; assay type: functional
Homo sapiens [26] = species on record: Homo sapiens; assay: Inhibition of anti CD3-induced IL2 production in human whole blood; assay type: functional
[27] = Volume of distribution in Sprague-Dawley rat at 1 mg/kg, iv; assay type: ADME, organism-based; parameters: dose 1 mg/kg, route intravenous; settings: in vivo, read-out: Vss
[28] = target: T1, Tyrosine-protein kinase JAK3 (Homo sapiens, UniProt P52333); assay: Inhibition of Jak3 by HTRF kinase assay
T1 sequence (P52333 whole entry): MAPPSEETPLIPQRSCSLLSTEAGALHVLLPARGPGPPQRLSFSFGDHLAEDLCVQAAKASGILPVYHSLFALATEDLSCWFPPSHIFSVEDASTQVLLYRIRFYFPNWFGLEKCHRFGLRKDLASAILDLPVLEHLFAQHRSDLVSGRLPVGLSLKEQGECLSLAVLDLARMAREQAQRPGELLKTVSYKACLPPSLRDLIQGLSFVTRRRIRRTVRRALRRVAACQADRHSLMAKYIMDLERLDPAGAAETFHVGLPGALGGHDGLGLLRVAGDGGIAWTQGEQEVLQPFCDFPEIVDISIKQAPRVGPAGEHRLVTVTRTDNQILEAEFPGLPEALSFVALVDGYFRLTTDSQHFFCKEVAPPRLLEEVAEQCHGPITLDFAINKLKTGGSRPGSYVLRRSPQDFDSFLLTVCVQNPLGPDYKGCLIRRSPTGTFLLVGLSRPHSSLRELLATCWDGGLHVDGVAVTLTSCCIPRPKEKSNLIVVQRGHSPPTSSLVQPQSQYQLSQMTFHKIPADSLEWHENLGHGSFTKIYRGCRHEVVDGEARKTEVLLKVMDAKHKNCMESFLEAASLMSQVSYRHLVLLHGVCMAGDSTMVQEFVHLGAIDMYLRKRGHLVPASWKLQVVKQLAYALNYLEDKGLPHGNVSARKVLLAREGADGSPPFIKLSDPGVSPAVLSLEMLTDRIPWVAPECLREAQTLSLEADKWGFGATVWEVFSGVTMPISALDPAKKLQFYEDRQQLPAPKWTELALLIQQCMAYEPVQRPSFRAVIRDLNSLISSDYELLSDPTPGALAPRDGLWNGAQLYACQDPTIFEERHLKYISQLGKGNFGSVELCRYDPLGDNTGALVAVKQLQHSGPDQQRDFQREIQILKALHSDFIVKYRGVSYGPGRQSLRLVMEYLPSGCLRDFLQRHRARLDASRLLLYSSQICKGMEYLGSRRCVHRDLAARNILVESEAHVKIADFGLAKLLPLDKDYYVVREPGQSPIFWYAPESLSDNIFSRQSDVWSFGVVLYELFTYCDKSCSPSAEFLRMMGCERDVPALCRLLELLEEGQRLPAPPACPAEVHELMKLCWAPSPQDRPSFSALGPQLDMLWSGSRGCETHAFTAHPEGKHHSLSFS

[29] = target: Serine/threonine-protein kinase PAK 2 (Homo sapiens, UniProt Q13177); assay: Inhibition of Pak2 by HTRF kinase assay
Chain of Serine/threonine-protein kinase PAK 2 (Q13177 whole entry): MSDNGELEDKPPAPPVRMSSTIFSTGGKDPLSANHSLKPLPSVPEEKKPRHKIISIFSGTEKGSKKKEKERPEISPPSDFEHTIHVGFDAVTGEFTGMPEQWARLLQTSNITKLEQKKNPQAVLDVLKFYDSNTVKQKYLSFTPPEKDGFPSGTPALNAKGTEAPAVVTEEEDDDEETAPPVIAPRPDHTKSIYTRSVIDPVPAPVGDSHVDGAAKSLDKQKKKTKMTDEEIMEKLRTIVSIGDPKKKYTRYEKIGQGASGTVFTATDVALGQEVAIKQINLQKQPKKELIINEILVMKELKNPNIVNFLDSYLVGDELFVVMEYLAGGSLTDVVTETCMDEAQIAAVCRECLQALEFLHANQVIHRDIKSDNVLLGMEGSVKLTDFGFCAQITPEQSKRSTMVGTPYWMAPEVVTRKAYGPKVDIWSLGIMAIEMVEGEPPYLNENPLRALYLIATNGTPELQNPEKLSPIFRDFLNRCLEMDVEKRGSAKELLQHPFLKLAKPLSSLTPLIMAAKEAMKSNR

Mus musculus [30] = assay: Inhibition of anti CD3-induced IL2 production in BALB/c mouse at 100 mg/kg, po relative to control; assay type: functional
[31] = target: Tyrosine-protein kinase Lck (Homo sapiens, UniProt P06239)
Chain of Tyrosine-protein kinase Lck (P06239 whole entry): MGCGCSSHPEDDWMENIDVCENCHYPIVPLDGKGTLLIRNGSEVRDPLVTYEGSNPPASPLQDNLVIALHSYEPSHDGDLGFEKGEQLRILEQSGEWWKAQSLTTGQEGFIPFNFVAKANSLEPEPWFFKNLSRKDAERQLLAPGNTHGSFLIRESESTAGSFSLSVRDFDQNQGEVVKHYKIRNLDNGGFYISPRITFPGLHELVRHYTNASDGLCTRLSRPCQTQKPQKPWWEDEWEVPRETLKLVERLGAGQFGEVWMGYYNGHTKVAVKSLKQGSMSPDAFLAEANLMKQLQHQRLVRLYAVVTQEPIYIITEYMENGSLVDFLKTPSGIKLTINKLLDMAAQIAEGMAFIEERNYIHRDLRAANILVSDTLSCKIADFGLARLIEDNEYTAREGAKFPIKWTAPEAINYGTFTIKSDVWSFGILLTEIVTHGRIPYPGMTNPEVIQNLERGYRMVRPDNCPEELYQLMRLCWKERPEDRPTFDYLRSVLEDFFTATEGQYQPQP
Description: Inhibition of Lck by HTRF kinase assay

[32] = Protein binding in mouse plasma; assay type: ADME; settings: read-out: PPB (converted)
Mus musculus [33] = assay: Inhibition of anti CD3-induced IL2 production in BALB/c mouse at 10 mg/kg, po relative to control; assay type: functional
[34] = Half life in Sprague-Dawley rat at 5 mg/kg, iv; assay type: ADME, organism-based; parameters: dose 5 mg/kg, route intravenous; settings: in vivo
[35] = Cmax in Sprague-Dawley rat at 2 mg/kg, po; assay type: ADME, organism-based; parameters: dose 2 mg/kg, route oral; settings: in vivo
Mus musculus [36] = assay: Mean terminal plasma concentration in BALB/c mouse at 22 mg/kg, po after […]; assay type: ADME, organism-based; parameters: dose 22 mg/kg, route oral
[37] = target: Tyrosine-protein kinase BTK (Homo sapiens, UniProt Q06187); assay: Inhibition of Btk by HTRF kinase assay
[38] = Clearance in Sprague-Dawley rat at 5 mg/kg, iv; assay type: ADME, organism-based; parameters: dose 5 mg/kg, route intravenous; settings: in vivo
[39] = Tmax in Sprague-Dawley rat at 2 mg/kg, po; assay type: ADME, organism-based; parameters: dose 2 mg/kg, route oral; settings: in vivo
[40] = Bioavailability in Sprague-Dawley rat at 2 mg/kg, po; assay type: ADME, organism-based; settings: in vivo
[41] = target: Vascular endothelial growth factor receptor 2 (Homo sapiens, UniProt P35968); assay: Inhibition of KDR by HTRF kinase assay
[42] = Volume of distribution in Sprague-Dawley rat at 5 mg/kg, iv; assay type: ADME, organism-based; parameters: dose 5 mg/kg, route intravenous; settings: in vivo, read-out: Vss
[43] = target: cAMP-dependent protein kinase catalytic subunit beta (Homo sapiens, UniProt P22694); assay: Inhibition of PKAbeta by HTRF kinase assay
[44] = AUC (0-infinity) in Sprague-Dawley rat at 2 mg/kg, po; assay type: ADME, organism-based; parameters: time infinity, dose 2 mg/kg, route oral; settings: plasma

| Structure (SMILES) | IC50 [3] | IC50 [4] | IC50 [5] | IC50 [6] | IC50 [7] | IC50 [8] | IC50 (T-cell [10]) | IC50 [11] | IC50 [13] | IC50 [15] | IC50 [16] | IC50 (T-cell [17]) | IC50 [19] | Activity (Homo sapiens [20]) | IC50 [22] | inhibition in vivo at 30 mg/kg (Mus musculus [25]) | Activity (Homo sapiens [26]) | IC50 [28] | IC50 [29] | inhibition in vivo at 100 mg/kg (Mus musculus [30]) | further results |
| --- | --- | --- | --- | --- | --- | --- | --- | --- | --- | --- | --- | --- | --- | --- | --- | --- | --- | --- | --- | --- | --- |
| Cc1ccc(C(=O)Nc2cccc(C(F)(F)F)c2)cc1-c1ccc2nc(NCCN3CCOCC3)ncc2c1 | > 25 µM | > 25 µM | > 25 µM | 0.002 µM | 0.173 µM | 0.389 µM | 0.021 µM | 0.292 µM | 0.145 µM | > 25 µM | 1.83 µM | 0.03 µM | 0.003 µM | >2.5 µM | > 25 µM | 84% | 0.272 µM | 0.072 µM | > 25 µM | 91% | half-life [1]: 1.8 h; Cmax [2]: 128 ng/mL; Tmax [9]: 3 h; bioavailability [12]: 38%; solubility [14]: 159 µg/mL (≈ 297 µM); AUC(0-inf) [18]: 668 ng·h/mL; EC50 (Mus musculus [21]): 0.63 µM; clearance [23]: 48 mL/min/kg; EC50 (Mus musculus [24]): 0.018 µM; Vd [27]: 5.04 L/kg; IC50 [31]: 0.0002 µM; fraction unbound [32]: 0.029; inhibition in vivo at 10 mg/kg (Mus musculus [33]): 49% |
| CNc1ncc2cc(-c3cc(C(=O)Nc4cc(C(F)(F)F)ccc4OC4CCN(C)CC4)ccc3C)ccc2n1 | > 25 µM | > 25 µM | > 5 µM | 0.017 µM | > 25 µM | > 10 µM | 0.036 µM | 1.11 µM | > 5 µM | > 25 µM | 2.73 µM | 0.243 µM | 0.009 µM | >2.5 µM | > 25 µM | 72% | 0.113 µM | 0.868 µM | > 25 µM | 96% | half-life [34]: 6.5 h; Cmax [35]: 121 ng/mL; EC50 (Mus musculus [36]): 1.4 µM; IC50 [37]: 3.33 µM; clearance [38]: 13.9 mL/min/kg; Tmax [39]: 6 h; bioavailability [40]: 55%; IC50 [41]: 0.017 µM; Vd [42]: 7.63 L/kg; IC50 [31]: 0.0005 µM; inhibition in vivo at 10 mg/kg (Mus musculus [33]): -3%; IC50 [43]: > 25 µM; AUC(0-inf) [44]: 1370 ng·h/mL |
